Experimental findings from ChEMBL document CHEMBL2073974, “Identification of a novel gene family encoding human liver-specific organic anion transporter LST-1” (J Biol Chem, 1999) are described below.

Data set [1] deals with T1, Solute carrier organic anion transporter family member 1B1 (Homo sapiens, UniProt Q9Y6L6).
T1 sequence (Q9Y6L6 whole entry): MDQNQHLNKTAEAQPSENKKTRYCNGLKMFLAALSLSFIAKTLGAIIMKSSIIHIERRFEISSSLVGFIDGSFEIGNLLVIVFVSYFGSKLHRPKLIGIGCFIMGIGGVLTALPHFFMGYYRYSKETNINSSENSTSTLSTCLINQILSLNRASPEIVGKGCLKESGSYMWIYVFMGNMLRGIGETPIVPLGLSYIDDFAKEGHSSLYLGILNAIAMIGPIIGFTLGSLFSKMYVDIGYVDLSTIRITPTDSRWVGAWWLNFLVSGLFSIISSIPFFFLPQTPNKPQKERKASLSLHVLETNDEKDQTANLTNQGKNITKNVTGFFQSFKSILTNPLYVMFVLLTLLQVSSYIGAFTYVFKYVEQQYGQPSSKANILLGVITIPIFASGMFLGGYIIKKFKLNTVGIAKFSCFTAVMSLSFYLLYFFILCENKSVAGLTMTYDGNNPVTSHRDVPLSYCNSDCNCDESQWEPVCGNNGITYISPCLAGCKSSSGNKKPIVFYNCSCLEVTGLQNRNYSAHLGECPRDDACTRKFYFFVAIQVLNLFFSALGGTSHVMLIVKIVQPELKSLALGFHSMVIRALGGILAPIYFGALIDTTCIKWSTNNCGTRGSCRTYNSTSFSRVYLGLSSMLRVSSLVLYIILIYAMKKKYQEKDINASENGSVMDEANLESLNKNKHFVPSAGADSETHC
Put plainly: (§1) TP_TRANSPORTER: uptake in Xenopus laevis oocytes. The following applies: oocyte. It is filed as functional, cell-based.

Substrate in data set [2]: N[C@@H](Cc1cc(I)c(Oc2cc(I)c(O)c(I)c2)c(I)c1)C(=O)O
Described as §1. It is filed as functional, cell-based, Oocyte.

Substrate in data set [3]: N[C@@H](Cc1cc(I)c(Oc2ccc(O)c(I)c2)c(I)c1)C(=O)O
The description is as §1. It is filed as functional, cell-based, Oocyte.

By Km is commonly meant the substrate concentration at which the rate is half of its maximum.

As to `C[C@]12CC[C@@H]3c4ccc(O)cc4CC[C@H]3[C@@H]1CC[C@@H]2O[C@@H]1O[C@H](C(=O)O)[C@@H](O)[C@H](O)[C@H]1O` [ESTRADIOL 17B GLUCURONIDE], the Activity entry in data set [1] is “substrate [+]”.

Take `CCCCC[C@H](O)/C=C/[C@H]1[C@H](O)CC(=O)[C@@H]1C/C=C\CCCC(=O)O` [DINOPROSTONE]: in data set [1], the Activity entry was “substrate [+]”.

As to `CCCCC/C=C\C\C=C/C=C/C=C/[C@@H](SC[C@@H](NC(=O)CC[C@H](N)C(=O)O)C(=O)NCC(=O)O)[C@@H](O)CCCC(=O)O` [LEUKOTRIEN C4], the Activity result in data set [1] is “substrate [+]”.

`CCCCC[C@H](O)/C=C/[C@H]1OC(O)C[C@H](O)[C@@H]1C/C=C\CCCC(=O)O` (stereo partly drawn) [THROMBOXANE B2]: in data set [1], the Activity entry was “substrate [+]”.

As to `C[C@]12CC[C@H](OS(=O)(=O)O)CC1=CC[C@@H]1[C@@H]2CC[C@]2(C)C(=O)CC[C@@H]12` [PRASTERONE SULFURIC ACID], the Activity result in data set [1] is “substrate [+]”.

As for `CCCCC/C=C\C\C=C/C=C/C=C/[C@@H](SC[C@H](N)C(=O)O)[C@@H](O)CCCC(=O)O` [LEUKOTRIEN E4], the Activity entry in data set [1] is “substrate [+]”.

B1: Solute carrier organic anion transporter family member 1B1 (Homo sapiens) (protein)
chain: T1 sequence (Q9Y6L6 whole entry)
As to B1, the Km amounted to 3 µM in data set [2] and 2.7 µM in data set [3].
